Test system: patients with postpartum depression (PPD)
Experiment: Clinical trial of inhaled 5-MeO-DMT in postpartum depression
Details: for BIMF functional domain Adjustment score / BIMF functional domain Infant Care score: maximum possible 12; for BIMF functional domain Mother-Child Interaction score / BIMF functional domain Self Care score / BIMF functional domain Social Support score: maximum possible 18; for BIMF functional domain Management score: maximum possible 36; for BIMF functional domain Psychological Well-being score: maximum possible 60
Procedure: The single-arm, open-label clinical trial will involve 15 adult female patients with clinically diagnosed postpartum depression (PPD).
The second dose (12 mg) will only be administered if: • a. […] The 6 mg dose was safe and well-tolerated according to the investigator, • c. Any psychoactive effects (PsE) of the prior dose have subsided, and • d. Pre-dose vital parameters and forced expiratory volume in one second (FEV1) are in normal range, or if outside of the normal range, are not clinically significant according to the investigator. • 3. Similarly, a third dose (18 mg) will only be administered if: • a. […] The 12 mg dose was safe and well-tolerated according to the investigator, and • c. Any PsE of the prior dose have subsided, and • d. Pre-dose vital parameters and forced expiratory volume in one second (FEV1) are in normal range, or if outside of the normal range, are not clinically significant according to the investigator.
The patients will be assessed for a peak psychedelic experience (based on a patient-scored visual analogue scale, the PE scale), sedation, and other endpoints after dosing. Follow-up visits are planned for Day 1, and Day 7 after the dosing day.
The following criteria must be met by all patients considered for clinical trial participation: • 1. Is female and in the age range between 18 and 45 years (inclusive) at screening. • 2. Has a body mass index (BMI) in the range of 18.5 and 35 kg/m^2 (inclusive) at screening. • 3. Meets the trial criteria for PPD as assessed by a trial psychiatrist or registered psychologist: • a. Diagnosis of Major Depressive Disorder without psychotic features, confirmed by the Mini-International Neuropsychiatric Interview (MINI), with peri-partum onset that began no earlier than gestation and no later than the first 4 weeks postpartum. • b. Has a Montgomery-Åsberg Depression Rating Scale (MADRS) total score of equal to or greater than 28 at screening and pre-dose on Day 0. • 6. […] Patients must have a negative pregnancy test at screening and on the pre-test day (Day −1). • 5. Is willing to delay start of other antidepressant or anxiety medication until after the end of the trial at Day 7 and agrees to keep any psychotherapy unchanged during the trial.
A potential patient who meets any of the following key exclusion criteria will be excluded from participation in this trial: • 1. Has, based on history, psychiatric assessment, and evaluation of the MINI, a current or prior diagnosis of bipolar disorder, a manic or hypomanic episode, a psychotic disorder, Major Depressive Disorder (MDD) or other mood disorder with psychotic features, obsessive compulsive disorder, post-traumatic stress disorder (PTSD), autism spectrum disorder, borderline personality disorder, schizophrenia, delusional disorder, paranoid personality disorder, schizoaffective disorder, clinically significant intellectual disability, or any other psychiatric comorbidity that renders the patient unsuitable for the trial according to the investigator's judgment. • 2. Has one or more first or second degree relatives with a current or previously diagnosed bipolar disorder, psychotic disorder or other mood disorder (including MDD) with psychotic features. • 3. Is in the judgement of a trial psychiatrist or registered psychologist, at significant risk for suicide based on history, psychiatric assessment, and evaluation of suicidal ideation and suicidal behaviour based on the Columbia-Suicide Severity Rating Scale (C-SSRS). • 4. Has taken anti-depressive medication within 14 days or 5 half-lives (whichever is longer) prior to dosing (exception: within the last 5 weeks in the case of fluoxetine). • 5.

[1] = PPD patient n=1, 6 mg then 12 mg
[2] = PPD patient n=1, 6 mg then 12 mg, 2 hr
[3] = PPD patient n=1, 6 mg then 12 mg, Day 1
[4] = PPD patient n=1, 6 mg then 12 mg, Day 7
[5] = PPD patient n=1, 6 mg then 12 mg, discharge
[6] = PPD patient n=1, Day 7 vs Day 0

COc1ccc2[nH]cc(CCN(C)C)c2c1 [5-MeO-DMT]
tolerability of the inhalation procedure (PPD patient n=1): well tolerated with no inhalation-related adverse events | MADRS remission criteria (MADRS total score equal or less than 10) [1]: fulfilled | MADRS response criteria (at least 50% improvement from baseline) [1]: fulfilled | time to clinical remission after administration [1]: ≤ 2 h | durability of clinical response (PPD patient n=1, 6 mg then 12 mg given on one day): sustained over the 7-day follow-up period | Total MADRS improvement [2]: 24 | Total MADRS score [2]: 5 | BPRS Tension improvement [3]: 5 | Total MADRS improvement [3]: 29 | Total MADRS score [3]: 0 | BIMF item 1: I am a good mother [4]: 6 | BIMF item 2: I feel rested [4]: 2 | BIMF item 3: I am comfortable with the way I've chosen to feed my baby (either bottle or breast, or both) [4]: 6 | BIMF item 4: My baby and I understand each other [4]: 5 | BIMF item 5: I am able to relax and enjoy time with my baby [4]: 6 | BIMF item 6: There are people in my life that I can trust to care for my baby when I need a break [4]: 6 | BIMF item 8: I am getting enough adult interaction [4]: 6 | BIMF item 9: I am getting enough encouragement from other people [4]: 6 | BIMF item 10: I trust my own feelings (instincts) when it comes to taking care of my baby [4]: 6 | BIMF item 11: I take a little time each week to do something for myself [4]: 6 | BIMF item 12: I am taking good care of my baby's physical needs (feedings, changing diapers, doctor's appointments) [4]: 6 | BIMF item 13: I am taking good care of my physical needs (eating, showering, etc) [4]: 5 | BIMF item 14: I make good decisions about my baby's health and well being [4]: 6 | BIMF item 15: My baby and I are getting into a routine [4]: 6 | BIMF item 16: I worry about how other people judge me (as a mother) [4]: 5 | BIMF item 17: I am able to take care of my baby and my other responsibilities [4]: 5 | BIMF item 18: Anxiety or worry often interferes with my mothering ability [4]: 5 | BIMF item 20: I am satisfied with the job I am doing as a new mother [4]: 5 | Total MADRS improvement [4]: 28 | Total MADRS score [4]: 1 | BIMF functional domain Adjustment score [4]: 6 | BIMF functional domain Infant Care score [4]: 12 | BIMF functional domain Mother-Child Interaction score [4]: 17 | BIMF functional domain Self Care score [4]: 13 | BIMF functional domain Social Support score [4]: 18 | BIMF functional domain Management score [4]: 33 | BIMF functional domain Psychological Well-being score [4]: 53 | BPRS Blunted Affect score [5]: 1 | BPRS Conceptual disorganization score [5]: 1 | BPRS Disorientation score [5]: 1 | BPRS Grandiosity score [5]: 1 | BPRS Hallucinatory behaviour score [5]: 1 | BPRS Hostility score [5]: 1 | BPRS Mannerisms and Posturing score [5]: 1 | BPRS Motor retardation score [5]: 1 | BPRS Suspiciousness score [5]: 1 | BPRS Tension improvement [5]: 5 | BPRS Uncooperativeness score [5]: 1 | BPRS Unusual Thought Content score [5]: 1 | BIMF item 1: I am a good mother (PPD patient n=1, Day 0): 6 | BIMF item 2: I feel rested (PPD patient n=1, Day 0): 0 | BIMF item 3: I am comfortable with the way I've chosen to feed my baby (either bottle or breast, or both) (PPD patient n=1, Day 0): 6 | BIMF item 4: My baby and I understand each other (PPD patient n=1, Day 0): 5 | BIMF item 5: I am able to relax and enjoy time with my baby (PPD patient n=1, Day 0): 5 | BIMF item 6: There are people in my life that I can trust to care for my baby when I need a break (PPD patient n=1, Day 0): 6 | BIMF item 8: I am getting enough adult interaction (PPD patient n=1, Day 0): 6 | BIMF item 9: I am getting enough encouragement from other people (PPD patient n=1, Day 0): 5 | BIMF item 10: I trust my own feelings (instincts) when it comes to taking care of my baby (PPD patient n=1, Day 0): 5 | BIMF item 11: I take a little time each week to do something for myself (PPD patient n=1, Day 0): 5 | BIMF item 12: I am taking good care of my baby's physical needs (feedings, changing diapers, doctor's appointments) (PPD patient n=1, Day 0): 6 | BIMF item 13: I am taking good care of my physical needs (eating, showering, etc) (PPD patient n=1, Day 0): 4 | BIMF item 14: I make good decisions about my baby's health and well being (PPD patient n=1, Day 0): 6 | BIMF item 15: My baby and I are getting into a routine (PPD patient n=1, Day 0): 5 | BIMF item 16: I worry about how other people judge me (as a mother) (PPD patient n=1, Day 0): 3 | BIMF item 17: I am able to take care of my baby and my other responsibilities (PPD patient n=1, Day 0): 5 | BIMF item 18: Anxiety or worry often interferes with my mothering ability (PPD patient n=1, Day 0): 2 | BIMF item 19: As time goes on, I am getting better at taking care of my baby (PPD patient n=1, Day 0): 0 | BIMF item 20: I am satisfied with the job I am doing as a new mother (PPD patient n=1, Day 0): 6 | reported adverse events (cramping left abdominal pain and headache) (PPD patient n=1, Day 0): mild, short-lasting and resolved spontaneously | BIMF functional domain Adjustment score (PPD patient n=1, Day 0): 5 | BIMF functional domain Infant Care score (PPD patient n=1, Day 0): 12 | BIMF functional domain Mother-Child Interaction score (PPD patient n=1, Day 0): 15 | BIMF functional domain Self Care score (PPD patient n=1, Day 0): 9 | BIMF functional domain Social Support score (PPD patient n=1, Day 0): 17 | BIMF functional domain Management score (PPD patient n=1, Day 0): 28 | BIMF functional domain Psychological Well-being score (PPD patient n=1, Day 0): 44 | BIMF TOTAL score (PPD patient n=1, Day 0, possible total 120): 92 | BIMF total score improvement, percent (PPD patient n=1, Day 7): 14% | BIMF TOTAL score, Δ (Day 7) [6]: 13 | BIMF functional domain Adjustment, % Improvement [6]: 20.00% | BIMF functional domain Infant Care, % Improvement [6]: 0.00% | BIMF functional domain Management, % Improvement [6]: 18% | BIMF functional domain Self Care, % Improvement [6]: 44% | BPRS Anxiety score (PPD patient n=1, baseline): 7 | BPRS Depressive Mood score (PPD patient n=1, baseline): 6 | BPRS Emotional Withdrawal score (PPD patient n=1, baseline): 5 | BPRS Excitement score (PPD patient n=1, baseline): 2 | BPRS Guilt Feelings score (PPD patient n=1, baseline): 6 | BPRS Somatic Concern score (PPD patient n=1, baseline): 6 | MADRS Apparent sadness score (PPD patient n=1, baseline): 5 | MADRS Concentration Difficulties score (PPD patient n=1, baseline): 0 | MADRS Inability to Feel score (PPD patient n=1, baseline): 3 | MADRS Reduced Sleep score (PPD patient n=1, baseline): 5 | MADRS Reduced appetite score (PPD patient n=1, baseline): 0 | MADRS Reported sadness score (PPD patient n=1, baseline): 4 | MADRS Suicidal Thoughts score (PPD patient n=1, baseline): 0 | Total MADRS score (PPD patient n=1, baseline): 29 | changes in vital parameters (PPD patient n=1, shortly after administration): temporary, clinically non-relevant increase in heart rate and blood pressure | ECG, safety laboratory analyses, CADSS (PPD patient n=1, ECG 3 hours, laboratory 7 days, CADSS 3 hours, 1 day and 7 days): unremarkable
